Experiments:
HCT116 cells [1] = assay: Functional cell death assay with inhibitors/activator; type: cell-based, human; details: then 10 µM RXC for 48 h; for effect of autophagy inhibitor on RXC-induced cell death: pretreated with 50 µM CQ or 5 mM 3-MA, annexin V-FITC/PI
Text: (§1) For apoptosis detection or functional assays, cell viability was quantified using annexin V-FITC/PI (FITC Annexin V Apoptosis Detection Kit I, BD Biosciences, San Jose, CA, USA) or YO-PRO-1/PI (Sigma-Aldrich Co.). The following inhibitors were used: chloroquine (autophagy inhibitor, Ipca Laboratories, Mumbai, MH, India); 3-methyladenine (autophagy inhibitor, Sigma-Aldrich Co.); and lithium chloride (Wnt activator, Sigma-Aldrich Co.).

4T1 = assay: Alamar blue cytotoxicity assay; type: cell-based, mouse; details: Mus musculus, 72 h, read-out: IC50 and 95%CI
Procedure: (§2) The Alamar blue assay was used to determine cell viability as previously described. Cells were seeded into 96-well plates at a density of 7 × 10^3 cells per well for adherent cells or 3 × 10^4 cells per well for suspended cells. The drug was added to each well after 24 h of incubation for adherent cells or immediately for suspended cells and incubated for an additional 72 h. […] Each well received 100 µM resazurin (Sigma-Aldrich Co. St. Louis, MO, United States) four (for cell lines) or 24 (for primary culture) h before the end of the incubation. A SpectraMax 190 Microplate Reader (Molecular Devices, Sunnyvale, CA, USA) was used to measure absorbance at 570 and 600 nm.

B16-F10 = assay: Alamar blue cytotoxicity assay; type: cell-based, mouse; details: Mus musculus, 72 h, read-out: IC50 and 95%CI
Procedure: as §2

A-375 = assay: Alamar blue cytotoxicity assay; type: cell-based, human; details: Homo sapiens, 72 h, read-out: IC50 and 95%CI
Procedure: as §2

A549 = assay: Alamar blue cytotoxicity assay; type: cell-based, human; details: Homo sapiens, 72 h, read-out: IC50 and 95%CI
Procedure: as §2

CAL 27 = assay: Alamar blue cytotoxicity assay; type: cell-based, human; details: Homo sapiens, 72 h, read-out: IC50 and 95%CI
Procedure: as §2

DU 145 = assay: Alamar blue cytotoxicity assay; type: cell-based, human; details: Homo sapiens, 72 h, read-out: IC50 and 95%CI
Procedure: as §2

H1299 = assay: Alamar blue cytotoxicity assay; type: cell-based, human; details: Homo sapiens, NCI-H1299, 72 h, read-out: IC50 and 95%CI
Procedure: as §2

HCT116 = assay: Alamar blue cytotoxicity assay; type: cell-based, human; details: Homo sapiens, HCT-116, 72 h, read-out: IC50 and 95%CI
Procedure: as §2

HL-60 = assay: Alamar blue cytotoxicity assay; type: cell-based, human; details: Homo sapiens, 72 h, read-out: IC50 and 95%CI
Procedure: as §2

HSC-3 = assay: Alamar blue cytotoxicity assay; type: cell-based, human; details: Homo sapiens, 72 h, read-out: IC50 and 95%CI
Procedure: as §2

HepG2 = assay: Alamar blue cytotoxicity assay; type: cell-based, human; details: Homo sapiens, 72 h, read-out: IC50 and 95%CI
Procedure: as §2

JUKART = assay: Alamar blue cytotoxicity assay; type: cell-based, human; details: Homo sapiens, 72 h, read-out: IC50 and 95%CI
Procedure: as §2

K-562 = assay: Alamar blue cytotoxicity assay; type: cell-based, human; details: Homo sapiens, K562, 72 h, read-out: IC50 and 95%CI
Procedure: as §2

KG-1a = assay: Alamar blue cytotoxicity assay; type: cell-based, human; details: Homo sapiens, 72 h, read-out: IC50 and 95%CI
Procedure: as §2

MDA-MB-231 = assay: Alamar blue cytotoxicity assay; type: cell-based, human; details: Homo sapiens, 72 h, read-out: IC50 and 95%CI
Procedure: as §2

NB4 = assay: Alamar blue cytotoxicity assay; type: cell-based, human; details: Homo sapiens, NB-4, 72 h, read-out: IC50 and 95%CI
Procedure: as §2

PANC-1 = assay: Alamar blue cytotoxicity assay; type: cell-based, human; details: Homo sapiens, 72 h, read-out: IC50 and 95%CI
Procedure: as §2

SCC-25 = assay: Alamar blue cytotoxicity assay; type: cell-based, human; details: Homo sapiens, 72 h, read-out: IC50 and 95%CI
Procedure: as §2

SCC-9 = assay: Alamar blue cytotoxicity assay; type: cell-based, human; details: Homo sapiens, 72 h, read-out: IC50 and 95%CI
Procedure: as §2

SCC4 = assay: Alamar blue cytotoxicity assay; type: cell-based, human; details: Homo sapiens, SCC-4, 72 h, read-out: IC50 and 95%CI
Procedure: as §2

THP-1 = assay: Alamar blue cytotoxicity assay; type: cell-based, human; details: Homo sapiens, 72 h, read-out: IC50 and 95%CI
Procedure: as §2

U-87 MG = assay: Alamar blue cytotoxicity assay; type: cell-based, human; details: Homo sapiens, 72 h, read-out: IC50 and 95%CI
Procedure: as §2

BJ = assay: Alamar blue cytotoxicity assay, noncancerous cells; type: cell-based, human; details: Homo sapiens, 72 h, read-out: IC50 and 95%CI
Procedure: as §2

MRC-5 = assay: Alamar blue cytotoxicity assay, noncancerous cells; type: cell-based, human; details: Homo sapiens, MRC5, MRC-5 noncancerous cells, 72 h, read-out: IC50 and 95%CI
Procedure: as §2

PBMC = assay: Alamar blue cytotoxicity assay, noncancerous cells; type: cell-based, human; details: Homo sapiens, 72 h, read-out: IC50 and 95%CI
Procedure: as §2

[2] = tested on: CR01 (colorectal carcinoma); assay: Alamar blue viability of primary cancer cells; type: cell-based, human; details: primary CRC (first listed); 25 μg/ml (RXC 31.3 μM, DOX 46 μM); 96 h
Procedure: as §2
(§3) CR03 (metastatic cholangiocarcinoma) CR04 (malignant papillary mesothelioma) […]
(§4) Figure S1. […] Cells were exposed to 25 […]
(§5) measured after 96 h using the Alamar blue assay. The data are presented as the […]
(§6) mean ± S.E.M. of four replicates. * P < 0.05 compared to CTL by one-way ANOVA […]
(§7) followed by Dunnett's multiple comparisons test. […]

[3] = tested on: CR03 (metastatic cholangiocarcinoma); assay: Alamar blue viability of primary cancer cells; type: cell-based, human; details: 25 μg/ml (RXC 31.3 μM, DOX 46 μM), 96 h
Procedure: as §2, §3, §4, §5, §6, §7

[4] = tested on: CR04 (malignant papillary mesothelioma); assay: Alamar blue viability of primary cancer cells; type: cell-based, human; details: primary papilliferous malignant mesothelioma; 25 μg/ml (RXC 31.3 μM, DOX 46 μM); 96 h
Procedure: as §2, §3, §4, §5, §6, §7

HCT116 cells [5] = assay: Cell cycle distribution and internucleosomal DNA fragmentation by flow cytometry; type: cell-based, human; details: 1 µM, positive control
Procedure: For quantification of internucleosomal DNA fragmentation and cell cycle distribution, the cells were stained with PI using a solution containing 0.1% Triton X-100, 2 µg/ml PI, 0.1% sodium citrate, and 100 µg/ml RNAse (all from Sigma-Aldrich) and incubated in the dark for 15 min at room temperature. Finally, cell fluorescence was measured using flow cytometry.
For all flow cytometry analyses, cell fluorescence was measured with a BD LSRFortessa cytometer and analyzed by BD FACSDiva Software (BD Biosciences) and FlowJo Software 10 (FlowJo LLC; Ashland, OR, USA). At least 10,000 events were evaluated per sample for intracellular staining, and at least 30,000 events were acquired per sample for cell surface protein staining. FSC-A versus FCS-H and SCC-A versus SCC-H were used to remove the doublets. The analysis excluded cellular debris.

HCT116 cells [6] = assay: CRC tumor growth xenograft model; type: in vivo, C. B-17 SCID mice; details: RXC 2 mg/kg, DOX 0.8 mg/kg, i.p. once a day for 2 weeks
Procedure: HCT116 cells (10^7 cells/500 μl) were inoculated subcutaneously into the left front armpit of mice, as previously reported. The animals were then treated intraperitoneally (200 μl/animal) once a day for 2 weeks. […] The animals were euthanized with an anesthetic overdose (thiopental, 100 mg/kg) 1 day after treatment ended, and tumors were excised, weighed, and processed for histological analysis. The inhibition ratio (percent) was calculated as follows: inhibition ratio (percent) = [(A − B)/A] × 100, where A is the average tumor weight of the negative control and B is the treated group.

[7] = RXC 2 mg/kg, DOX 0.8 mg/kg
Text: To evaluate toxicological features, all animals were weighed at the beginning and end of the experiment. Throughout the experiment, the animals were monitored for abnormalities. An Advia 60 hematology system was used to perform hematological analyses (Bayer, Leverkusen, Germany). The livers, kidneys, lungs, and hearts were removed, weighed, and examined for color change, gross lesion formation, and/or hemorrhaging before being fixed in 4% formaldehyde, dehydrated in a graded alcohol series, washed in xylene, and embedded in paraffin wax. The tissue was cut into 5 μm thick slices, stained with hematoxylin-eosin and/or periodic acid-Schiff (liver and kidney), and examined histologically under optical microscopy.

WT SV40 MEF = assay: Alamar blue survival curves; type: cell-based; details: Mus musculus, 72 h
Procedure: as §2

BAD KO SV40 MEF = assay: Alamar blue survival curves and cell death; type: cell-based, mouse; details: Mus musculus; BAD KO SV40 MEF; Alamar blue, 72 h
Procedure: as §2, §1

## Cn1cnc(N)c2ncnc1-2 [3-MA, 3-methyladenine]
HCT116 cells [1]
  effect of autophagy inhibitor on RXC-induced cell death: enhanced RXC-induced cell death

## [Cl-].[Li+] [lithium chloride]
HCT116 cells [1]; pretreated with 25 mM LiCl, YO-PRO-1/PI
  effect of Wnt activator on RXC-induced cell death: ineffective in preventing RXC-induced cell death

## COc1cccc2c1C(=O)c1c(O)c3c(c(O)c1C2=O)C[C@@](O)(C(=O)CO)C[C@@H]3O[C@H]1C[C@H](N)[C@H](O)[C@H](C)O1 [DOX, Doxorubicin, reference compound]
4T1
  IC50: 1.7 µM
B16-F10
  IC50: 0.53 µM
A-375
  IC50: 0.16 µM
A549
  IC50: 2.35 µM
CAL 27
  IC50: 0.18 µM
DU 145
  IC50: 0.22 µM
H1299
  IC50: 0.77 µM
HCT116
  IC50: 3.3 µM
HL-60
  IC50: 0.09 µM
HSC-3
  IC50: 1.43 µM
HepG2
  IC50: 0.09 µM
JUKART
  IC50: 0.03 µM
K-562
  IC50: 1.5 µM
KG-1a
  IC50: 0.4 µM
MDA-MB-231
  IC50: 0.55 µM
NB4
  IC50: 0.11 µM
PANC-1
  IC50: 1.06 µM
SCC-25
  IC50: 1.58 µM
SCC-9
  IC50: 1.21 µM
SCC4
  IC50: 0.07 µM
THP-1
  IC50: 0.12 µM
U-87 MG
  IC50: 0.44 µM
BJ
  IC50: 0.73 µM
MRC-5
  IC50: 1.61 µM
PBMC
  IC50: 1.28 µM
[2]
  reduced cell viability: 71.0%
[3]
  reduced cell viability: 65.6%
[4]
  reduced cell viability: 64.3%
HCT116 cells [5]
  cell cycle effect: G2/M arrest
HCT116 cells [6]
  tumor mass inhibition: 46.7%
[7]; i.p. once a day for 2 weeks
  hematological analysis: Decreases in erythrocytes, hemoglobin, hematocrit, MCV and leukocytes
[7]; i.p. once a day for 2 weeks, n = 15 per group
  animals died during the treatment: four
[7]; i.p. once a day for 2 weeks, p < 0.05
  body weight: decrease in body weight
[7]; mainly in treated animals
  liver histology: focal areas of hepatocyte coagulation necrosis
[7]; more evident than in control
  kidney histology: focal areas of coagulation necrosis of the renal cortex tubules

## O=c1[nH]cc(F)c(=O)[nH]1 [5-FU, 5-fluorouracil, reference compound]
WT SV40 MEF
  IC50: 10 µM
BAD KO SV40 MEF
  IC50: 25.8 µM

## CCN(CC)CCCC(C)Nc1ccnc2cc(Cl)ccc12 (stereo not shown) [CQ, chloroquine]
HCT116 cells [1]
  effect of autophagy inhibitor on RXC-induced cell death: enhanced RXC-induced cell death

Source: paper PMC10724293, “New ruthenium-xanthoxylin complex eliminates colorectal cancer stem cells by targeting the heat shock protein 90 chaperone” (Cell Death & Disease, 2023)
